Measured values published in patent US5132432A, “Chemically reactive pyrenyloxy sulfonic acid dyes” (Molecular Probes, Inc., priority 1989, dated 1992).
Where a name gives a salt, the structure may show the parent alone. Read-outs that look alike come from different tables or passages of the source.

Experiments:
[1] = test system: anion transport systems in red blood cells; conditions: cited from earlier work
[2] = test system: microsomal glucose-6-phosphatase; conditions: cited from earlier work
[3] = background statement; cited from earlier work
[4] = Comparison of spectral properties of reactive dyes, Table 1; assay type: physicochemical; conditions: for Quantum Yield: in aqueous solution, grade in words
Description: A number of dyes have been proposed in the literature that can be excited and detected at wavelengths less than 500 nm. Several chemically reactive fluorophores that can be excited in the near ultraviolet and short wavelength visible region of the spectrum have been described. […] These proposed tracers are derived from naphthalene derivatives such as 5-dimethylaminonaphthalene-1-sulfonic acid (Dansyl) [Weber, Biochem. J. 41:145 (1952); Rinderknecht, Experientin 16:430 (1960)], 3-(isothiocyanato)naphthalene-1,5-disulfonic acid [Braunitzer, et al., Hoppe-Seyler's Z. Physiol. […] Chem. 358:505 (1977)], pyrene derivatives such as pyrene-1-butyric acid (PBA) [Malencik & Anderson, Biochemistry 11:3022 (1972)], 8-isothiocyanatopyrene-1,3,6-trisulfonic acid (IPTS) [Braunitzer,et al., Hoppe-Seyler's Z. Physiol. Chem. 354:1536 (1973)] and 8-hydroxypyrene-1,3,6-trisulfonyl chloride [Wolfbeis, Fresenies Z. Anal. Chem. 320:271 (1985)], stilbene derivatives such as 4-acetamido-4'-isothiocyanatostilbene-2,2'-disulfonic acid (SITS) [Cornelisse & Ploem, J. Histochem. Cytochem. 24:72 (1976)], and coumarin dyes such as 3-carboxy-7-hydroxycoumarin [Baker & Collis, J. Chem. Soc. 1949, S 12 (1949)], 7-hydroxy-4-methylumbelliferone-3-acetic acid (4-MUA) [Khalfan, et al., Biochem. J. 209:265 (1983)], 7-amino-4-methylcoumarin-3-acetic acid (AMCA) [Khalfan, et al., Histochem. J. 18:497 (1986)] and 7-diethylaminocoumarin [Staines, et al. (1988)].

[5] = Solubility in water / aqueous solution; conditions: solubility of the reactive form of the dye; grade in words
[6] = in 1N sulfuric acid; cited from earlier work
Swiss-Webster mice = conditions: mouse, in vivo; cited from earlier work
[7] = Spectral properties (absorption/emission) of new pyrenyloxy sulfonic acid dyes, Table 4; assay type: physicochemical; conditions: 50 mM aqueous potassium phosphate buffer at pH 8.0
Description: Stock solutions were prepared by accurately weighing and dissolving 5-10 mg samples of the compounds in 2.000 ml water. A 10 μl aliquot of the stock solution was diluted into 2.00 ml of 50 mM potassium phosphate buffer at pH 8.0. Absorbance solutions were prepared by further diluting 200 μl of the diluted stock solution to 2.000 ml with 50 mM potassium phosphate buffer at pH 8.0. Absorption data was collected on an IBM Model 9420 UV/Visible Spectrophotometer and extinction coefficients were determined by standard Beer's Law calculations.
Uncorrected fluorescence data was obtained on a Perkin-Elmer Model 650-40 Fluorescence Spectrophotometer equipped with a Perkin-Elmer/Hitachi 057 X-Y Recorder using a ten- to twentyfold dilution of the absorbance solutions. Fluorescence of the pyrenyloxy sulfonic acid dyes was determined for the reactive dyes and for their conjugates with model compounds by dissolving the dye at a concentration above 1×10^-8M in an appropriate solvent such as water, methanol, ethanol, or dimethylsulfoxide and measurement of the fluorescence in a suitable instrument, such as a fluorescence spectrometer or fluorescence microscope or flow cytometer. Fluorescence could also be observed for the dyes in solution by visual inspection with illumination by a suitable source that emits light at wavelengths of less than 420 nm.

[8] = Quantum yield relative to quinine sulfate; assay type: physicochemical; conditions: in 50 mM phosphate buffer at pH 8.0
Description: An estimate of the quantum yield of the dyes relative to quinine sulfate (quantum yield=0.55 in 1N sulfuric acid) was obtained by integrating the emission spectrum of the dye excited at the same wavelength and optical density as the standard.

[9] = Emission spectra comparison of equimolar solutions / normalized spectra (FIG. 2, FIG. 3); assay type: physicochemical
Description: The narrower spectral width makes the dyes particularly valuable for applications requiring multiple dyes such as flow cytometry, DNA sequencing [Smith, et at. (1985)] and multiparameter microscopy. The utility of the objects of this invention in multiparameter applications is illustrated in FIG. 3. […] The extinction coefficients for the pyrenyloxy sulfonic acid dyes are generally greater than 25,000 cm^-1 M^-1 and the quantum yields of the dyes in aqueous solution are generally above 0.5. In FIG. 4, the emission intensities of bovine serum albumin (BSA) conjugates of the pyrene isothiocyanate IPTS are compared to the BSA conjugates of compound 9. […] The subject dyes show only minor spectral shifts and intensity changes between water, methanol, and ethanol and have absorption and emission spectra that lack significant pH dependence between pH 6 and 10, as illustrated in FIG. 5. Table 4 lists the approximate spectral properties of a number of the dyes and intermediates that are the subject of this invention.

[10] = full bandwidth at half peak height

Structure (SMILES): CC(=O)Nc1ccc(/C=C/c2ccc(N=C=S)cc2S(=O)(=O)O)c(S(=O)(=O)O)c1 [SITS, 4-acetamido-4'-isothiocyanatostilbene-2,2'-disulfonic acid]
- effect on anion transport systems in red blood cells [1]: inhibitory effect
- effect on microsomal glucose-6-phosphatase [2]: inhibitory effect
- aqueous solubility / lipophilicity [3]: high water solubility
- % Emission at 514 nm [4]: 19
- Abs Max [4]: 337
- Em. Max. [4]: 438
- Emission Bandwidth [4]: 82
- Emission Bandwidth [cm^-1] [4]: 4825
- ε [4]: 37400 M⁻¹ cm⁻¹
- Quantum Yield [4]: low
- Water Solubility [5]: high

Structure (SMILES): C=C[C@H]1C[N@@]2CC[C@H]1C[C@H]2[C@H](O)c1ccnc2ccc(OC)cc12 [quinine sulfate]
- quantum yield of standard [6]: 0.55

Structure (SMILES): O=S(=O)(O)c1cc(O)c2ccc3c(S(=O)(=O)O)cc(S(=O)(=O)O)c4ccc1c2c34 [8-hydroxypyrene-1,3,6-trisulfonic acid]
- LD50 (Swiss-Webster mice): exceeding 1000 mg/kg

Structure (SMILES): NNC(=O)COc1cc(S(=O)(=O)[O-])c2ccc3c(S(=O)(=O)[O-])cc(S(=O)(=O)[O-])c4ccc1c2c43.[Na+].[Na+].[Na+] [Compound 12, 1,3,6-Trisulfo-8-pyrenyloxyacethydrazide, trisodium salt]
- Emission Band-width [7]: 50 nm
- Emission at 514 nm [7]: 3.9 % of max
- Abs Max ([7]; first (longer-wavelength) maximum): 399 nm
- Abs Max ([7]; second (shorter-wavelength) maximum): 377 nm
- Quantum Yield [8]: 0.54
- resolution of emission from fluorescein and Lucifer Yellow CH [9]: emission which is well resolved from the emission bands of both these widely used dyes
- ε ([4]; at first maximum): 28000 M⁻¹ cm⁻¹
- ε ([4]; at second maximum): 23300 M⁻¹ cm⁻¹
- Abs Max ([4]; first maximum): 399 nm
- Emission Bandwidth [4, 10]: 50 nm
- Emission Bandwidth [cm^-1] [4, 10]: 2168 cm⁻¹
- Quantum Yield [4]: high
- % Emission at 514 nm ([4]; percent of maximum emission at 514 nm): 3.8 % of max
- Abs Max ([4]; second maximum): 376 nm
- Water Solubility [5]: high

Structure (SMILES): O=S(=O)([O-])c1cc(O)c2ccc3c(S(=O)(=O)[O-])cc(S(=O)(=O)[O-])c4ccc1c2c34.[Na+].[Na+].[Na+] [8-hydroxypyrene-1,3,6-trisulfonic acid, trisodium salt]
- toxicity to Swiss-Webster mice (Swiss-Webster mice): nontoxic to Swiss-Webster mice
